Laboratory results reported in publication PMC12051620, “Molecular basis underlying the specificity of an antagonist AA92593 for mammalian melanopsins” (The Journal of Biological Chemistry, 2025).

Target: lanceolatum melanopsin F189^ECL2W/I207^5.42F mutant (Branchiostoma lanceolatum, UniProt A0A2Z4C1D4, F188W/I204F)
Test: GsX GloSensor assay with Gsα/q11
Format: cell-based
Text: We assessed the effect of the antagonist on the mutants using the GsX GloSensor assay with Gsα/q11. […] Furthermore, the double substitution F189^ECL2W/I207^5.42F further increased the susceptibility of the lanceolatum melanopsin to the antagonist by ∼88% (Fig. 7, G, H, and I). The AA92593-induced inhibition of the double mutant F189^ECL2W/I207^5.42F was as efficient as that of human melanopsin (Fig. 7I). […] Taken together, the introduction of Trp-189^ECL2 and Phe-207^5.42 rendered lanceolatum melanopsin highly sensitive to the antagonist (Fig. 7, G, H, and I).
For GloSensor assay, opsins, GloSensor assay sensor (coded by pGlo-22F), and NanoBiT-tagged G proteins were transiently expressed in COS-1 cells (kindly provided from Dr David Farrens, Oregon Health and Science University) using PEI as described previously ([24], [52]). For the GsX GloSensor assay ([12], [13]), each well of a 96-well assay plate (Corning) was transfected with 50 ng opsin plasmid, 16.7 ng G protein plasmid, 50 ng pGlo-22F plasmid (Promega), and 500 ng PEI in 25 μl Opti-mem and 75 μl Dulbecco's modified Eagle's medium (D-MEM). For NanoBiT G protein dissociation assay, each well of a 96-well assay plate was transfected with 50 ng opsin plasmid, 5 ng Lg-BiT inserted Gqα (Gqα-LgBiT) plasmid, 25 ng Gβ1 plasmid, 25 ng Sm-BiT fused Gγ2 plasmid, 5 ng RIC8A plasmid, and 500 ng PEI in 25 μl Opti-mem and 75 μl D-MEM. For GFP-fluorescence microscopy, a 35-mm cell culture dish (IWAKI) was transfected with 2 μg melanopsin-GFP plasmid and 8 μg PEI in 400 μl Opti-mem and 1.2 ml D-MEM. […]
The transfected COS-1 cells were incubated at 37 °C, 5% CO2 for 2 days, and the medium was aspirated and exchanged with 50 μl of HBSS (145 mM NaCl, 10 mM D-glucose, 5 mM KCl, 1 mM MgCl2, 1.7 mM CaCl2, 1.5 mM NaHCO3, 10 mM Hepes, pH 7.4), containing 33.3, 20, 10, 2, 0.2, 0.02, 0.002, or 0 μM AA92593, 0.5% dimetyl sulfoxide (DMSO), and 4% (vol/vol) GloSensor cAMP reagent stock solution. […] Then, the cells were incubated at room temperature for 1 h, and luminescence changes were monitored. After incubation of the cells with AA92593, luminescence measurement was interrupted, the plate was ejected, and the cells were added with 50 μl of HBSS containing 0.2 μM 9-cis-retinal. […] Luminescence was measured using GM-2000 or GM-3510 microplate reader (Promega). Luminescence level of each well was measured every 30 s with integration time of 0.6 to 0.9 s. To illuminate opsins, luminescence measurement was interrupted, the plate was ejected, and the plate was illuminated by white light with CN-160 LED video light (light intensity, ∼9 mW/cm^2) (NEEWER). […] After illumination, luminescence measurement was resumed. The measured luminescence levels were normalized to the level at the starting point (time = 0 min). […]

[1] = relative peak cAMP response vs no AA92593

lanceolatum melanopsin F189^ECL2W/I207^5.42F mutant, sequence (A0A2Z4C1D4 entry or part of it F188W/I204F): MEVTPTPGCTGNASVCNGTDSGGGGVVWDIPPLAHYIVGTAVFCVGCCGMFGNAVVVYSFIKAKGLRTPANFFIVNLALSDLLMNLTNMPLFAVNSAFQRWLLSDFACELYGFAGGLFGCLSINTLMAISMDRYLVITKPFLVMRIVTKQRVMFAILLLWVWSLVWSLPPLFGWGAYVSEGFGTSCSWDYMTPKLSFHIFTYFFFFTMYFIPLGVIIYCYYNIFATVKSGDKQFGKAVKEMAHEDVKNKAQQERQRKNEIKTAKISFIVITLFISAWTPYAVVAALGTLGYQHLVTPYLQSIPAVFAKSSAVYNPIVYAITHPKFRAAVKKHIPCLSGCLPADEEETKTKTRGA

For `COc1ccc(S(=O)(=O)N2CCCCC2)cc1C` [AA92593], the “Hill fitting parameter rate of dose-response curve” value was −0.84 ± 0.75, the IC50 was 1.4 ± 0.88 µM and the “Hill fitting parameter max of dose-response curve” value [1] was 107.65 ± 12.6. The “Hill fitting parameter min of dose-response curve” value [1] was −5.22 ± 4.53.
